# Results reported in US12559526B2, “Complement component 1s (C1s) deficient cells for production of vaccines and biopharmaceutical proteins” (The Regents of the University of California, priority 2018, dated 2026).
# Target: T1, C1s (Cricetulus griseus, UniProt G3GUR0)
# T1 construct: endogenous in cells; host or cells: CHO cells; FreeStyle CHO-S (Thermo Fisher) named in Materials and Methods; 10x concentrated culture supernatant
# Assay: Proteolysis of purified MN gp120 by 10× concentrated CHO supernatant, western blot
# Type: biochemical, Chinese Hamster
# Conditions: purified MN gp120 (clade B) combined with 10× concentrated CHO supernatant; reduced with DTT; goat polyclonal anti-gp120 western blot
# Method: FIGS. 8A and 8B. […] FIG. 8A. Purified MN gp120, a clade B protein, was combined with 10× concentrated CHO supernatant. Samples were reduced with DTT and probed on western blot using a goat polyclonal antibody against gp120. FIG. 8B provides details of samples loaded in lanes 1-5 in FIG. 8A. The serine protease inhibitor, 4-AMB was used.
# Enrichment of protease from CHO cell culture supernatant was carried out using a series of chromatography columns to enrich for protein containing proteolytic activity. Individual chromatography fractions (CHO cell culture supernatant was fractionated based on size using size exclusion chromatography, followed by further purification on strong anion-exchange column) were assayed for the presence of protease activity against purified gp120.
# T1 sequence (G3GUR0 entry or part of it): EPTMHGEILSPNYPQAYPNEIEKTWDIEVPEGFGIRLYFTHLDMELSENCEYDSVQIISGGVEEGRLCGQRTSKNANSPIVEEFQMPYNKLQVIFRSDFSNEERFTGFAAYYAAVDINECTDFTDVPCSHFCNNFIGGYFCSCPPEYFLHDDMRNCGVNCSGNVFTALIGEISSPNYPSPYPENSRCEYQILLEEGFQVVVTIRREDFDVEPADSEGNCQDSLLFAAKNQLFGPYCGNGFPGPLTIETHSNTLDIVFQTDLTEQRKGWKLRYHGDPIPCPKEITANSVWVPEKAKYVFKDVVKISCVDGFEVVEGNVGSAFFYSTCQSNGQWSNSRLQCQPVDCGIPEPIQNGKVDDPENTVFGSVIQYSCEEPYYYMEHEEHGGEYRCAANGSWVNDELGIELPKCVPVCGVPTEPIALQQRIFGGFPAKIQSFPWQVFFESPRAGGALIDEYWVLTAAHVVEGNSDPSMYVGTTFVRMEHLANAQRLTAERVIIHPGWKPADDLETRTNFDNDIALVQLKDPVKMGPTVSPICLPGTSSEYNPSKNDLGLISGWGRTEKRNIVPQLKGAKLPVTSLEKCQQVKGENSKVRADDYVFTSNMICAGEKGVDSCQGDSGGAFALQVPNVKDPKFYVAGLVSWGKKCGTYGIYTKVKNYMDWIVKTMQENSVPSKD
smiles,measurement,value
O=C(O)CN(CCOCCOCCN(CC(=O)O)CC(=O)O)CC(=O)O [EGTA],proteolysis of gp120 in CHO cell supernatant,Inhibition of proteolysis
